This is an account of results in patent publication US8784774B2, “Labeled molecular imaging agents and methods of use” (General Electric Company, priority 2011, dated 2014).

Like-named read-outs stand apart in the source and are kept apart here.

Experiment [1] concerns the target T1, cystine/glutamate transporter (Mus musculus, UniProt Q9WTR6).
T1 sequence (Q9WTR6 1-502): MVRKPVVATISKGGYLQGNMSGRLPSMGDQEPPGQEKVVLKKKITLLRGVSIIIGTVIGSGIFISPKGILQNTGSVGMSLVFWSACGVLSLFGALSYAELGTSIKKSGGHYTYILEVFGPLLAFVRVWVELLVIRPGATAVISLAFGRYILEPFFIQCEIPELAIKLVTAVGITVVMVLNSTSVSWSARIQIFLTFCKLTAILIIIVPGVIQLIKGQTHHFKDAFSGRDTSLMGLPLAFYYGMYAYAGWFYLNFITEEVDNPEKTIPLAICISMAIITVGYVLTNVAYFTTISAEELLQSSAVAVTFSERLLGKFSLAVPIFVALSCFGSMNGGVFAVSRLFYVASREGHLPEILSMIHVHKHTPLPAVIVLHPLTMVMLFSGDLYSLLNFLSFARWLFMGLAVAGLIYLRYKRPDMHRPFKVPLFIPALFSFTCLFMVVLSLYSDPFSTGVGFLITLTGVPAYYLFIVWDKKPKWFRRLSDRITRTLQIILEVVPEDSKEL
T1 sequence (P10852 1-526 partner): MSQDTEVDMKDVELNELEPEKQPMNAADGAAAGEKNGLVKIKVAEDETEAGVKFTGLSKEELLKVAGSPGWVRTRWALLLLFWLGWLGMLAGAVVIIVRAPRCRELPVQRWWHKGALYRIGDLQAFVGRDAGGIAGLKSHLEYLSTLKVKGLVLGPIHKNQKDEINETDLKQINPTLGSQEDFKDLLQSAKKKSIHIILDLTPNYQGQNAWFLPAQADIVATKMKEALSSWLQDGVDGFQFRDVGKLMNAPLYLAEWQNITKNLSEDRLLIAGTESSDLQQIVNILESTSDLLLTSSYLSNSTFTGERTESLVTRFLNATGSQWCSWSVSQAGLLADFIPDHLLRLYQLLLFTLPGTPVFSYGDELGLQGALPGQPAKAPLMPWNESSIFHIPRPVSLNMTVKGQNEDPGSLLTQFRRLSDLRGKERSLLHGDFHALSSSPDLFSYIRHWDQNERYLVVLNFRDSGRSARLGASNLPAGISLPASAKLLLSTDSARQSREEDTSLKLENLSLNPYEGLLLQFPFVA
The experiment can be described thus: cell-based.

For experiment [2], the target named is T1, cystine/glutamate transporter. The experiment can be described thus: Screen of unlabeled compounds for competition with 3H-L-ASU uptake (Example 3). It counts as cell-based. More on the design: endogenous in cells. To be noted: read-out: inhibition of ^3H-L-ASU uptake.
Experiment [3] shares this target. Nature of the experiment: 3H-L-Asu uptake in EL4 cells with or without DEM and with transporter inhibitors (Example 1). It counts as cell-based. The arrangement: endogenous in cells; host or cells: EL4 mouse lymphoma cells, with or without diethylmaleate (DEM) treatment. As to the method: Mouse lymphoma cells (EL4) were cultured with or without 100 μM diethylmaleate for 24 hours, washed in phosphate buffered saline (PBS) divided into aliquots of 5×10^6 cells and incubated with [^3H]-L-2-aminosuberic acid (^3H-L-Asu) without or with inhibitors of the cystine/glutamate transporter for 15 minutes. Cells were then washed 3 times and collected in a 1 ml volume of 1M HCl and transferred to a scintillation vial. 12 ml of Ready Gel scintillation fluid was added to each sample and cell uptake was determined by scintillation counting using a Perkin Elmer Tri-Carb Liquid Scintillation Analyzer.

For experiment [4] the target is unchanged. The following applies: read-out: IC50 for inhibition of ^3H-L-GLU uptake; DEM treated EL4 cells; separate set of experiments.
The test system of experiment [5] is EL4 xenograft tumor tissue slices. Nature of the experiment: Ex vivo uptake in EL4 xenograft tumor tissue slices (Example 5). Type of experiment: cell-based, mouse. The following applies: 0.33 μCi, 30 minutes, agents matched for specific activity and radioactive dose. Here is the method: We compared uptake of ^3H-ASU in tumor tissue ex vivo with uptake of ^3H-FDG, a tritiated form of the common ^18F-FDG imaging agent. the two agents were matched for specific activity and radioactive dose. 0.33 μCi of agent was incubated with equivalent aliquots of EL4 xenograft tumor tissue slices for 30 minutes (tumors processed with three passes on a McIlwain Tissue chopper, at 500 um steps, and washed with fresh buffer). Slices where washed three times, lysed with 1M HCl and evaluated by scintillation counting.

In experiment [6] the target is T1, cystine/glutamate transporter. The experiment can be described thus: Uptake of labeled compounds in DEM treated EL4 cells with or without SSZ (Example 2). It counts as cell-based. The arrangement: endogenous in cells; host or cells: EL4 mouse lymphoma cells, with or without diethylmaleate (DEM) treatment. The following applies: for inhibition of uptake by SSZ: 500 μM SSZ; for Uptake relative to ^3H-GLU: 0.33 μCi; for SSZ inhibition (%): uptake of the labeled compound with 500 μM SSZ. As to the method: 5×10^6 DEM treated EL4 cells were incubated with 0.33 μCi of either [^3H]-L-ASU, [^3H]-L-GLU or [^35S]-L-Cystine (with or without 500 μM SSZ) for 15 minutes before being washed three times in PBS and uptake was analyzed via liquid scintillation counting.

Setting [7] is: unlabeled competitor at high concentration (2.5 mM).

`N[C@H](CCCCCC(=O)O)C(=O)O` [D-ASU] yielded an IC50 in experiment [1] of 36.2 µM. The inhibition at 2500 µM in experiment [2] is above 90%.
Consider `N[C@H](CCC[C@H](N)C(=O)O)C(=O)O` [DiAPA, diaminopimelic acid], for which the inhibition at 2500 µM in experiment [2] (setting [7]) is below 45%.
In experiment [1], `N[C@@H](CCCC(=O)O)C(=O)O` [L-AAA, L-aminoadipic acid] had an IC50 of 23.9 µM. Further, the inhibition at 2500 µM in experiment [2] (setting [7]) was above 90%.
`N[C@@H](CCCCCC(=O)O)C(=O)O` [L-ASU, L-aminosuberic acid] gave an IC50 in experiment [1] of 2.9 µM. Moreover, the inhibition at 2500 µM in experiment [2] was above 90%; in experiment [3] (EL4, read-out: inhibition of ^3H-L-Asu uptake) it was above 95%.
For the compound `N[C@@H](CCC(=O)O)C(=O)O` [L-GLU, L-glutamate], the IC50 in experiment [4] was 4.7 µM.
For `[3H]C(CCC(=O)O)C([3H])C[C@H](N)C(=O)O` (stereo partly drawn) [^3H-Asu, (S)-2-amino 4,5-^3H-suberic acid], in experiment [5], the “more uptake than ^3H-FDG” value was determined as 70%. For the same compound, the “^3H-L-Asu uptake in cells exposed to oxidative stress” value in experiment [3] (EL4 cells, 100 μM diethylmaleate (DEM) 24 hours vs without, 15 minutes incubation) is listed as “increased”. In addition, the “inhibition of uptake by SSZ” value in experiment [6] is “almost completely inhibited”. In experiment [6] (15 minutes), the “Uptake relative to ^3H-GLU” value is given as 447.0 (±22.1), the “uptake efficiency relative to L-GLU uptake” value is “approximately 4.5 times” and the “SSZ inhibition (%)” value is 95.8 (±0.17) %.
`N[C@@H](CSSC[C@H](N)C(=O)O)C(=O)O` [^35S-Cystine, [^35S]-L-Cystine]: the “inhibition of uptake by SSZ” value in experiment [6] is “approximately ⅔”. Moreover, in experiment [6] (15 minutes), the “Uptake relative to ^3H-GLU” value is 168.8 (±2.0) and the “SSZ inhibition (%)” value was 68.7 (±1.76) %.
For `O=C(O)CCCCCCC(=O)O` [suberic acid], the inhibition at 2500 µM in experiment [2] (setting [7]) is below 45%.
In turn, `O=C(O)c1cc(/N=N/c2ccc(S(=O)(=O)Nc3ccccn3)cc2)ccc1O` [sulfasalazine] had an inhibition at 500 µM in experiment [3] (inhibitor 500 μM, EL4 cells, 15 minutes) above 95%.
As for `N[C@@H](CCC(=O)NCC(=O)O)C(=O)O` [γ-glutamyl-glycine], the inhibition at 2500 µM in experiment [2] (setting [7]) is below 45%.
